The target in one assay is Syk kinase (Homo sapiens, UniProt P43405). Kind of assay: SYK Enzymatic Assay (Z-LYTE Tyr 2 peptide). Type of assay: biochemical. To be noted: 8 concentrations 1 μM down to 0.0003 μM. The procedure: Syk kinase assay are performed in vitro using Kit-Tyr 2 Peptide (Invitrogen, Cat. No. PV3191) and in a 384-well assay plate. […] The 384-well assay plate (Corning, Cat. No. 3575) is mixed and incubated at room temperature for 1 hour. 10 μL of the Development Solution (prepared by diluting Development Reagent A (Cat. No. PV3297) to 1/32 with Development Buffer (Cat. No. PV3127)) is then added to each well, mixed and incubated at room temperature for another 1 hour. The reactions are then stopped by adding 10 μL of the Stop Reagent (Invitrogen, Cat. No. PV3094), and the plate is read with Wallac 1420 VICTOR^3 Multilabel Counter (PerkinElmer™) at 445 nm and 520 nm fluorescence. All compounds are tested at 8 concentrations (1 μM down to 0.0003 μM) using a 1:3 serial dilution scheme.

A further assay has as its system RBL-2H3 cells. Kind of assay: IgE-induced Beta-hexosaminidase secretion in RBL-2H3 cells. Type of assay: cell-based. To be noted: Rattus norvegicus, DNP-BSA stimulation. The procedure: For the determination of IgE-induced Beta-hexosaminidase secretion, RBL-2H3 cells (SIBS) are seeded in 96 well plates at 4×10^4 cells per well and incubated in MEM media with 15% FBS and Glutamine ([…]) for 4 hours and sensitized with 0.5 ug/ml of SPE-7 overnight. Cells are washed 3 times with Tyrode's buffer and incubated in the presence or absence of various concentrations of the testing compound for 20 min at 37° C., 5% CO2. Cells are stimulated by adding 10 uL of DNP-BSA solution (150 ng/mL) to each well and incubating for 45 minutes at 37° C., 5% CO2. Then, 45 μL of the supernatant is taken and incubated with 100 μL of 1 mM 4-Nitrophenyl N-acetyl-β-D-glucosaminide (Sigma, Cat. No. N9376), which is diluted in 0.05 M citrate buffer (pH 4.5), for 1.5 hr at 37° C. The reactions are quenched by adding 185 μL of 0.05 M sodium carbonate buffer (pH 10.0). Plates are read at 405 nm on Multiskan (MK 3).

Where [1] appears, read: RBL-2H3, IgE-induced Beta-hexosaminidase secretion.

What is called IC50 is the concentration at which inhibition is half-maximal. Read a low IC50 as greater potency. On to `CC(=O)N1CC(c2ccc(-c3cc4nccnc4c(OC[C@@H]4CN(C(N)=O)CCO4)n3)cc2)C1` [Cmpd 296], for which the concentration for half-maximal inhibition (IC50) against Syk kinase is 0.072 µM; in the assay on RBL-2H3 cells (setting [1]), above 3.33 µM.

Take `O=C(C(F)F)N1CCO[C@H](COc2nc(-c3ccc(N4CCNCC4)cc3)cc3nccnc23)C1` [Compound 6, (S)-2,2-difluoro-1-(2-((7-(4-(piperazin-1-yl)phenyl)pyrido[4,3-b]pyrazin-5-yloxy)methyl)morpholino)ethanone]: the results for the IC50 at Syk kinase and in the assay on RBL-2H3 cells (IgE-induced Beta-hexosaminidase secretion) were 0.034 µM and 0.26 µM, respectively.

`CS(=O)(=O)N1CCO[C@H](COc2nc(-c3ccc(N4CCOCC4)c(F)c3)cc3nccnc23)C1` [Compound 7]: the values for the IC50 at Syk kinase and in the assay on RBL-2H3 cells (setting [1]) were 0.071 µM and 0.122 µM, respectively.

As to `CN1CCC(c2ccc(-c3cc4nccnc4c(OC[C@@H]4CN(S(C)(=O)=O)CCO4)n3)cc2)CC1` [Compound 8], the 50% inhibitory concentration (IC50) against Syk kinase turned out to be 0.048 µM; with RBL-2H3 cells (setting [1]) it was 0.113 µM.

For `O=C(C(F)F)N1CCO[C@H](COc2nc(-c3ccc(C4CCOCC4)cc3)cc3nccnc23)C1` [Compound 9], the IC50 was 0.098 µM at Syk kinase and 0.127 µM with RBL-2H3 cells (setting [1]).

`CS(=O)(=O)N1CCO[C@H](COc2nc(-c3ccc(C4CCOCC4)cc3)cc3nccnc23)C1` [Compound 11]: the values for the IC50 against Syk kinase and in the assay on RBL-2H3 cells (setting [1]) were 0.052 µM and 0.048 µM, respectively.

Consider `CS(=O)(=O)N1CCO[C@H](COc2nc(-c3ccc(N4CCOCC4)cc3)cc3nccnc23)C1` [Compound 12], for which the values for the IC50 against Syk kinase and with RBL-2H3 cells (setting [1]) were 0.024 µM and 0.021 µM, respectively.

Take `CN1CCN(c2ccc(-c3cc4nccnc4c(OC[C@@H]4CN(S(C)(=O)=O)CCO4)n3)cc2)CC1` [Compound 13]: the IC50 was 0.025 µM on Syk kinase and 0.04 µM in the assay on RBL-2H3 cells (setting [1]).

On to `CS(=O)(=O)N1CCO[C@H](COc2nc(-c3ccc(N4CCNCC4)cc3)cc3nccnc23)C1` [Compound 14], for which the IC50 on Syk kinase was 0.025 µM; in the assay with RBL-2H3 cells (setting [1]), 0.631 µM.

Turning to `O=C(C(F)F)N1CCO[C@H](COc2nc(-c3ccc(N4CCOCC4)c(F)c3)cc3nccnc23)C1` [Compound 15], the IC50 was 0.096 µM on Syk kinase and 0.102 µM with RBL-2H3 cells (setting [1]).

Turning to `CN1CCN(c2ccc(-c3cc4nccnc4c(OC[C@@H]4CN(C(=O)C(F)F)CCO4)n3)cc2)CC1` [Compound 16], the concentration for half-maximal inhibition (IC50) against Syk kinase came out at 0.036 µM; in the assay with RBL-2H3 cells (setting [1]), 0.033 µM.

Turning to `CCN1CCN(c2ccc(-c3cc4nccnc4c(OC[C@@H]4CN(C(=O)C(F)F)CCO4)n3)cc2)CC1` [Compound 17], the IC50 against Syk kinase was found to be 0.032 µM; with RBL-2H3 cells (setting [1]) it was 0.056 µM.

Take `CC1CN(c2ccc(-c3cc4nccnc4c(OC[C@@H]4CN(S(C)(=O)=O)CCO4)n3)cc2)CCO1` (stereo partly drawn) [Compound 18]: the IC50 came out at 0.023 µM against Syk kinase and 0.062 µM in the assay with RBL-2H3 cells (setting [1]).

As for `C[C@@H]1CN(c2ccc(-c3cc4nccnc4c(OC[C@@H]4CN(S(C)(=O)=O)CCO4)n3)cc2)C[C@H](C)O1` [Compound 19], the figures for the IC50 against Syk kinase and with RBL-2H3 cells (setting [1]) were 0.029 µM and 0.11 µM, respectively.

On to `CS(=O)(=O)N1CCO[C@H](COc2nc(-c3ccc(N4CCC(F)(F)CC4)cc3)cc3nccnc23)C1` [Compound 20], for which the IC50 at Syk kinase was found to be 0.041 µM; in the assay with RBL-2H3 cells (setting [1]), 0.066 µM.

For the compound `CS(=O)(=O)N1CCO[C@H](COc2nc(-c3ccc(N4CCCCC4)cc3)cc3nccnc23)C1` [Compound 21], the values for the IC50 at Syk kinase and in the assay on RBL-2H3 cells (setting [1]) were 0.03 µM and 0.088 µM, respectively.

Consider `CC(C)(O)C1CCN(c2ccc(-c3cc4nccnc4c(OC[C@@H]4CN(S(C)(=O)=O)CCO4)n3)cc2)CC1` [Compound 22], for which the IC50 at Syk kinase was determined as 0.016 µM; in the assay on RBL-2H3 cells (setting [1]) it was 0.073 µM.

As to `CCS(=O)(=O)N1CCC(c2ccc(-c3cc4nccnc4c(OC[C@@H]4CN(C(C)=O)CCO4)n3)cc2)CC1` [Compound 23], the IC50 amounted to 0.062 µM against Syk kinase and 0.109 µM in the assay on RBL-2H3 cells (setting [1]).

`CC(=O)N1CCO[C@H](COc2nc(-c3ccc(N4CCOCC4)cc3)cc3nccnc23)C1` [Compound 24]: the IC50 against Syk kinase is 0.076 µM; in the assay on RBL-2H3 cells (setting [1]), 0.127 µM.

For the compound `CCS(=O)(=O)N1CCN(c2ccc(-c3cc4nccnc4c(OC[C@@H]4CN(C(C)=O)CCO4)n3)cc2)CC1` [Compound 25], the IC50 against Syk kinase is 0.067 µM; in the assay on RBL-2H3 cells (setting [1]), 0.155 µM.

As to `CS(=O)(=O)N1CCN(c2ccc(-c3cc4nccnc4c(OC[C@@H]4CN(S(C)(=O)=O)CCO4)n3)cc2)CC1` [Compound 26], the figures for the IC50 against Syk kinase and in the assay with RBL-2H3 cells (setting [1]) were 0.018 µM and 0.113 µM, respectively.

`CS(=O)(=O)N1CCO[C@H](COc2nc(-c3ccc(N4CCN(CCO)CC4)cc3)cc3nccnc23)C1` [Compound 27]: the IC50 against Syk kinase stood at 0.021 µM; in the assay on RBL-2H3 cells (setting [1]) it was 0.222 µM.

Consider `NS(=O)(=O)N1CCO[C@H](COc2nc(-c3ccc(N4CCCCC4)cc3)cc3nccnc23)C1` [Compound 28], for which the IC50 is 0.04 µM against Syk kinase and 0.142 µM with RBL-2H3 cells (setting [1]).

For `NS(=O)(=O)N1CCO[C@H](COc2nc(-c3ccc(N4CCC(F)(F)CC4)cc3)cc3nccnc23)C1` [Compound 29], the IC50 was determined as 0.066 µM against Syk kinase and 0.106 µM in the assay with RBL-2H3 cells (setting [1]).

`NS(=O)(=O)N1CCO[C@H](COc2nc(-c3ccc(N4CCCC4)cc3)cc3nccnc23)C1` [Compound 30]: the IC50 at Syk kinase is 0.043 µM; with RBL-2H3 cells (setting [1]), 0.277 µM.

`COC1CCN(c2ccc(-c3cc4nccnc4c(OC[C@@H]4CN(S(C)(=O)=O)CCO4)n3)cc2)CC1` [Compound 31]: the IC50 on Syk kinase came out at 0.017 µM; with RBL-2H3 cells (setting [1]) it was 0.056 µM.

Take `CN(C)c1ccc(-c2cc3nccnc3c(OC[C@@H]3CN(C(=O)C(F)F)CCO3)n2)cc1F` [Compound 32]: the values for the IC50 at Syk kinase and in the assay on RBL-2H3 cells (setting [1]) were 0.06 µM and 0.076 µM, respectively.

Consider `CC(=O)N1CCC(c2ccc(-c3cc4nccnc4c(OC[C@@H]4CN(S(C)(=O)=O)CCO4)n3)cc2)CC1` [Compound 33], for which the IC50 at Syk kinase worked out at 0.027 µM; in the assay with RBL-2H3 cells (setting [1]) it was 0.064 µM.

With `CNc1ccc(-c2cc3nccnc3c(OC[C@@H]3CN(S(C)(=O)=O)CCO3)n2)cc1` [Compound 36], the IC50 worked out at 0.055 µM on Syk kinase and 0.097 µM in the assay with RBL-2H3 cells (setting [1]).

Consider `COc1ccc(-c2cc3nccnc3c(OC[C@@H]3CN(S(C)(=O)=O)CCO3)n2)cc1` [Compound 38], for which the IC50 was 0.083 µM on Syk kinase and 0.278 µM with RBL-2H3 cells (setting [1]).

As to `Cn1ccc2cc(-c3cc4nccnc4c(OC[C@@H]4CN(S(C)(=O)=O)CCO4)n3)ccc21` [Compound 39], the IC50 was 0.033 µM against Syk kinase and 0.076 µM in the assay on RBL-2H3 cells (setting [1]).

In the case of `COc1ccc(-c2cc3nccnc3c(OC[C@@H]3CN(S(C)(=O)=O)CCO3)n2)cc1OC` [Compound 43], the IC50 is 0.013 µM against Syk kinase and 0.037 µM in the assay with RBL-2H3 cells (setting [1]).

The compound `CC(=O)N1CCO[C@H](COc2nc(-c3ccc(C4(C#N)CC4)cc3)cc3nccnc23)C1` [Compound 276] came in with an IC50 on Syk kinase of 0.112 µM.

`C=C(C)c1ccc(-c2cc3nccnc3c(OC[C@@H]3CN(S(C)(=O)=O)CCO3)n2)cc1` [Compound 277, (S)-4-(methylsulfonyl)-2-(((7-(4-(prop-1-en-2-yl)phenyl)pyrido[3,4-b]pyrazin-5-yl)oxy)methyl)morpholine] registered an IC50 on Syk kinase of 0.192 µM.

Compound `CC(=O)N1CCO[C@H](COc2nc(-c3ccc(C(C)(CO)CO)cc3)cc3nccnc23)C1` [Compound 278] returned a 50% inhibitory concentration (IC50) at Syk kinase of 0.175 µM.

Take `COC(C)c1ccc(-c2cc3nccnc3c(OC[C@@H]3CN(C(C)=O)CCO3)n2)cc1` (stereo partly drawn) [Compound 280]: the half-maximal inhibitory concentration (IC50) against Syk kinase was found to be 0.113 µM.

On Syk kinase, `CC(=O)N1CCO[C@H](COc2nc(-c3ccc(C(O)C(C)(C)C)cc3)cc3nccnc23)C1` (stereo partly drawn) [Compound 285] had an IC50 of 0.258 µM.

Consider `CC(=O)N1CCO[C@H](COc2nc(-c3ccc(C(O)C(C)C)cc3)cc3nccnc23)C1` (stereo partly drawn) [Compound 286], for which half-maximal inhibition against Syk kinase (IC50) required 0.403 µM.

`CC(C)C(O)c1ccc(-c2cc3nccnc3c(OC[C@@H]3CN(S(C)(=O)=O)CCO3)n2)cc1` (stereo partly drawn) [Compound 287]: at Syk kinase, the IC50 is 0.105 µM.

Regarding `CC(=O)N1CCO[C@H](COc2nc(-c3ccc(C4(C#N)CCC4)cc3)cc3nccnc23)C1` [Compound 289], on Syk kinase, the IC50 was 0.115 µM.

Consider `CC(=O)N1CC(c2ccc(-c3cc4nccnc4c(OC[C@@H]4CN(C(C)=O)CCO4)n3)cc2)C1` [Compound 295, (S)-1-(2-(((7-(4-(1-acetylazetidin-3-yl)phenyl)pyrido[3,4-b]pyrazin-5-yl)oxy)methyl)morpholino)ethanone], for which, on Syk kinase, half-maximal inhibition (IC50) required 0.128 µM.

At Syk kinase, `CC(=O)N1CCO[C@H](COc2nc(-c3ccc(C4(O)CCC4)cc3)cc3nccnc23)C1` [Compound 309] showed an IC50 of 0.127 µM.

Regarding `CN1C[C@@H](COc2nc(-c3ccc(C(C)(C)O)cc3)cc3nccnc23)OCC1=O` [Compound 310], inhibition at Syk kinase was half-maximal at 0.588 µM (IC50).

`CC(=O)NC(C)(C)c1ccc(-c2cc3nccnc3c(OC[C@@H]3CN(S(C)(=O)=O)CCO3)n2)cc1` [Compound 313] came in with an IC50 at Syk kinase of 0.104 µM.

`CC(C)(O)c1ccc(-c2cc3nccnc3c(OCC3OCCNC3=O)n2)cc1` (stereo not drawn) [Compound 319] registered an IC50 against Syk kinase of 0.208 µM.

Compound `CS(=O)(=O)N1CCC(c2ccc(-c3cc4nccnc4c(OCC4OCCNC4=O)n3)cc2)CC1` (stereo not drawn) [Compound 320] showed an IC50 at Syk kinase of 0.119 µM.

The values above are taken from patent US20170152258A9, “Substituted Pyridopyrazines as Syk Inhibitors” (HUTCHISON MEDIPHARMA LIMITED, priority 2012, published 2017).
